{
  "source": "patent US20150160197A1",
  "about": "“System and Method for Analyzing Samples Labeled with 5, 10, 15, 20 Tetrakis (4-Carboxyphenyl) Porphine (TCPP)” (bioAffinity Technologies, Inc., priority 2009, published 2015)",
  "key": {"[1]": {"tested_on": "cells of lung sputum sample", "assay": "Fluorescence spectral imaging (LCTF/CCD) of TCPP-labeled lung sputum cells on slides", "type": "cell-based, human", "conditions": "fixed sputum cells on slide, images separated by spectral emission (530 nm vs 660 nm layers)", "text": "According to one embodiment of the present invention, a biological specimen, for example a sputum sample is processed using a thin prep protocol onto a microscope slide. […] Minimizing corrosive effects to the plasma membrane is important as the TCPP is shown to localize on the plasma membrane of the cell surface. The cells are processed to separate the cells from the mucous and cell fragments. Each prepared slide contains a monolayer of the sputum cells. After preparing the slides, the labeling reagent TCPP is dissolved in concentrations between 0.05 ug/ml-4.0 ug/ml in an aqueous alcohol containing between 50% and 90% isopropanol alcohol solution. […]\nTo gather our data an image capture system having a detector capable of quantifying emission of photons from a TCPP labeled cell across light spectrum from about 350 nm to about 800 nm was employed according to one embodiment of the present invention. […]\nReferring now to FIG. 1 is a cell labeled or stained with TCPP according to one embodiment of the present invention. […] The autofluorescence of the cells is detected in the green channel 560 +/−30nm and the fluorescence of the TCPP labeling compound on the cell is detected in the red channel 660 +/−30 nm. […] By tuning the LCTF to different frequencies during imaging, the system permits information to be gathered and analyzed over a broad spectrum. […]"}, "neoplastic cells": {"tested_on": "neoplastic cells", "conditions": "cell sample incubated 6-24 hours with 200 μg/ml TCPP; cited from earlier work"}},
  "note": "“Also recorded” adds a separate entry of the source.",
  "data": [
    {"compound": "O=C(O)c1ccc(-c2c3nc(c(-c4ccc(C(=O)O)cc4)c4ccc([nH]4)c(-c4ccc(C(=O)O)cc4)c4nc(c(-c5ccc(C(=O)O)cc5)c5ccc2[nH]5)C=C4)C=C3)cc1", "note": "[TCPP, 5, 10, 15, 20 tetrakis (4-carboxyphenyl) porphine]", "values": [
      {"measurement": "location of TCPP in cell structures", "setting": "[1]", "result": "emitted exclusively from the plasma membrane; also recorded: adheres only to surface features and does not migrate into internal cell structures"},
      {"measurement": "location of TCPP in cells after incubation", "setting": "neoplastic cells", "result": "entered cells and bound to the perinuclear membrane and mitochondria of neoplastic cells"}
    ]}
  ]
}
